From patent publication US8278304B2, “Substituted 4-hydroxypyrimidine-5-carboxamides” (Merck Sharp & Dohme Corp., priority 2008, dated 2012)

biological target: T1, PHD2 (Homo sapiens, UniProt Q9GZT9); assay: PHD2 / HIF-1α peptide hydroxylation assay, time resolved fluorescence (VHL complex detection); assay type: biochemical; conditions: FLAG-tagged full length PHD2; 0.2 μM 2-oxoglutarate, 0.5 μM HIF-1α peptide; read-out: PHD2 Activity (PHD2 binding activity expressed as IC50 (nM))
T1 construct: FLAG-tagged full length PHD2 expressed in and purified from baculovirus-infected Sf9 cells; FLAG; made in house; host or cells: baculovirus-infected Sf9 cells
T1 sequence (Q9GZT9 whole entry): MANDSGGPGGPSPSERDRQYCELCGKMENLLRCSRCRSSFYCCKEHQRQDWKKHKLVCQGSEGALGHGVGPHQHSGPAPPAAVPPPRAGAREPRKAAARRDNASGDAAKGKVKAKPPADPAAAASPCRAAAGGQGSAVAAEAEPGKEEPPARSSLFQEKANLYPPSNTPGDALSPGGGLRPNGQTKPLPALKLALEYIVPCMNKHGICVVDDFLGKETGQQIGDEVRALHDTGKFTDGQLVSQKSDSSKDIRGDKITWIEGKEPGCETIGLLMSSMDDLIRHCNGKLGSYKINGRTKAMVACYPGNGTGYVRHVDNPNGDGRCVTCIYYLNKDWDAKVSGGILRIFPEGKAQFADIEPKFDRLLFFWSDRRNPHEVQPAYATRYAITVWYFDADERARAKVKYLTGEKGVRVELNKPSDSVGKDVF
Method in brief: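 Sf9-expressed FLAG-tagged full-length PHD2 (0.15 μg/ml) preincubated with compound 30 min at room temperature in Tris pH 7.4 buffer with 10 μM ferrous sulfate, 1 mM ascorbate and catalase. Reaction started with 0.2 μM 2-oxoglutarate and 0.5 μM biotinylated HIF-1α peptide (final); hydroxylation detected by time-resolved fluorescence via VHL complex binding.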

SMILES	IC50 [nM]
O=C(NC(c1ccccc1)c1ccncc1)c1cnc(-n2cccn2)nc1O (centres unmarked) [Example 58, 4-Hydroxy-N-[phenyl(pyridin-4-yl)methyl]-2-(1H-pyrazol-1-yl)pyrimidine-5-carboxamide]	≤ 10
O=C(NCc1ccc(Oc2ccc(F)cc2)cc1)c1cnc(-n2cccn2)nc1O [Example 99, N-[4-(4-fluorophenoxy)benzyl]-4-hydroxy-2-(1H-pyrazol-1-yl)pyrimidine-5-carboxamide]	≤ 10
Cc1nc(-c2ncc(C(=O)Nc3ccc(F)cc3Cl)c(O)n2)cs1 [Example 38, N-(2-chloro-4-fluorophenyl)-4-hydroxy-2-(2-methyl-1,3-thiazol-4-yl)pyrimidine-5-carboxamide]	100 to 1000
C[C@H](NC(=O)c1cnc(-n2cccn2)nc1O)c1ccc2c(c1)OCCO2 [Example 132, N-[(1S)-1-(2,3-dihydro-1,4-benzodioxin-6-yl)ethyl]-4-hydroxy-2-(1H-pyrazol-1-yl)pyrimidine-5-carboxamide]	≤ 10
O=C(O)c1ccc(-c2ncc(C(=O)NCc3ccc(F)cc3)c(O)n2)nc1 [Example 3, 6-(5-{[(4-Fluorobenzyl)amino]carbonyl}-4-hydroxypyrimidin-2-yl)nicotinic acid]	10 to 100

Second part, the compound after the results:

IC50 [nM]	SMILES
10 to 100	CC(C)CC(NC(=O)c1cnc(-c2cccnn2)nc1O)c1ccc(C#N)cc1 (single isomer, unassigned) [Example 159, N-[1-(4-cyanophenyl)-3-methylbutyl]-4-hydroxy-2-(pyridazin-3-yl)pyrimidine-5-carboxamide]
≤ 10	O=C(NCc1ccc(-c2ccccc2F)nc1)c1cnc(-n2cccn2)nc1O [Example 106, N-{[6-(2-fluorophenyl)pyridin-3-yl]methyl}-4-hydroxy-2-(1H-pyrazol-1-yl)pyrimidine-5-carboxamide]
≤ 10	COc1ccc(C(NC(=O)c2cnc(-c3cccnn3)nc2O)c2ccc(Cl)nc2)cc1 (centres unmarked) [Example 169, N-[(6-chloropyridin-3-yl)(4-methoxyphenyl)methyl]-4-hydroxy-2-(pyridazin-3-yl)pyrimidin-5-carboxamide]
1000 to 10000	O=C(NCc1ccc(F)cc1)c1cnc(-c2ccc(C(F)(F)F)cn2)nc1O [Example 11, N-(4-fluorobenzyl)-4-hydroxy-2-[5-(trifluoromethyl)pyridin-2-yl]pyrimidine-5-carboxamide]
≤ 10	CC(C)C(NC(=O)c1cnc(-n2cccn2)nc1O)c1ccccc1 (centres unmarked) [Example 131, 4-hydroxy-N-(2-methyl-1-phenylpropyl)-2-(1H-pyrazol-1-yl)pyrimidine-5-carboxamide]
≤ 10	CC(C)(NC(=O)c1cnc(-n2cccn2)nc1O)c1ccc(C(F)(F)F)nc1 [Example 74, 4-Hydroxy-N-{1-methyl-1-[6-(trifluoromethyl)pyridin-3-yl]ethyl}-2-(1H-pyrazol-1-yl)pyrimidine-5-carboxamide]
